Experimental findings from US10005767B2, “Compositions and methods for inhibition of the JAK pathway” (Rigel Pharmaceuticals, Inc., priority 2009, dated 2018) are described below.

SMILES strings stand for the structures. Structures can show the parent of a compound that is named as a salt. Where two headings read alike, the source gives them in different places.

For the test, the system named is human primary T-cells, IL-2 stimulated proliferation (JAK-1 and JAK-3 dependent; reported as JAK3 activity). Nature of the test: Human primary T-cell proliferation stimulated by IL-2 (Example 3). Format: cell-based. The conditions noted are these: tested under conditions described in Example 3 (IL-2 stimulated human primary T-cell proliferation), read-out: ability to inhibit JAK3 activity, IC50 range (Table V). In outline: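 Peripheral-blood human T-cells pre-activated via TCR/CD28, IL-2-starved overnight, then cultured 72 h at 37 °C with compound in Yssel's medium containing IL-2 (80 U/mL in cell suspension). Proliferation read as viable-cell ATP by CellTiter-Glo luminescence; reduction versus control taken as JAK pathway inhibition.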

Broadly, the IC50 is the concentration that inhibits the measured activity by half. For the compound `Cc1cnc(Nc2ccc(-c3cccnc3)c(F)c2)nc1Nc1ccc2oc(=O)[nH]c2c1` [Compound I-505, 5-(2-(3-fluoro-4-(pyridin-3-yl)phenylamino)-5-methylpyrimidin-4-ylamino)benzo[d]oxazol-2(3H)-one trifluoroacetic acid salt], the IC50 (Homo sapiens, T-cell) was greater than 10000 nM. In the case of `Cc1cnc(Nc2ccc3c(c2)NS(=O)(=O)CO3)nc1Nc1ccc2oc(=O)[nH]c2c1` [IV-16, 5-[2-(2,2-Dioxo-1H-benzo[e][1,3,4]oxathiazin-7-ylamino)-5-methyl-pyrimidin-4-ylamino]-3H-benzooxazol-2-one], for the setting “Homo sapiens, T-cell”, the IC50 was less than 500 nM.

As for `Cc1cnc(Nc2ccc(S(C)(=O)=O)cc2)nc1Nc1ccc2oc(=O)n(C)c2c1` [Compound I-70, N2-((4-methylsulfonyl)phenyl)-N4-(3-methyl-2-oxo-2,3-dihydrobenzo[d]oxazol-5-yl)-5-methylpyrimidine-2,4-diamine], the IC50 is less than 500 nM. For `Cc1cnc(Nc2cc(C(=O)NC3CCC3)cc(C(F)(F)F)c2)nc1Nc1ccc2oc(=O)[nH]c2c1` [Compound I-469, N-Cyclobutyl-3-[5-methyl-4-(2-oxo-2,3-dihydro-benzooxazol-5-ylamino)-pyrimidin-2-ylamino]-5-trifluoromethyl-benzamide], for the setting “Homo sapiens, T-cell”, the IC50 is less than 500 nM. Still for that read-out and setting: the figure for `Cc1cnc(Nc2cccc(C(C)NC(C)C)c2)nc1Nc1ccc2oc(=O)[nH]c2c1` (stereo not shown) [Compound I-209, 5-(2-(3-(1-(isopropylamino)ethyl)phenylamino)-5-methylpyrimidin-4-ylamino)benzo[d]oxazol-2(3H)-one] is less than 500 nM; for `Cc1ccc(F)c(Nc2ncc(C)c(Nc3ccc4oc(=O)[nH]c4c3)n2)c1` [Compound I-515, 5-(2-(2-fluoro-5-methylphenylamino)-5-methylpyrimidin-4-ylamino)benzo[d]oxazol-2(3H)-one] it is less than 500 nM. For `Cc1cnc(Nc2ccc(-n3cccc3)c(C#N)c2)nc1Nc1ccc2oc(=O)[nH]c2c1` [Compound I-295, N2-[3-cyano-4-(1H-pyrrol-1-yl)]phenyl-5-methyl-N4-(2-oxo-2,3-dihydro-1,3-benzoxazol-5-yl)-2,4-pyrimidinediamine], the IC50 is less than 500 nM. As for `Cc1cnc(Nc2cc(C)c(C)c(C)c2)nc1Nc1cc(C)c2oc(=O)[nH]c2c1` [Compound I-475, 7-methyl-5-(5-methyl-2-(3,4,5-trimethylphenylamino)pyrimidin-4-ylamino)benzo[d]oxazol-2(3H)-one], for the setting “Homo sapiens, T-cell”, the half-maximal inhibitory concentration (IC50) was less than 500 nM.

`Cc1cnc(Nc2ccc(F)c(Cl)c2)nc1Nc1ccc2oc(=O)[nH]c2c1` [Compound I-399, N2-(3-chloro-4-fluoro)phenyl-5-methyl-N4-(2-oxo-2,3-dihydro-1,3-benzoxazol-5-yl)-2,4-pyrimidinediamine]: the IC50 was less than 500 nM. Consider `COc1cc(Nc2ncc(C)c(Nc3ccc4oc(=O)[nH]c4c3)n2)ccc1N1CCN(C)CC1` [Compound I-340, N2-[3-methoxy-4-(4-methylpiperazino)]phenyl-5-methyl-N4-(2-oxo-2,3-dihydro-1,3-benzoxazol-5-yl)-2,4-pyrimidinediamine], for which the IC50 is less than 500 nM.

For the compound `Cc1cnc(Nc2ccc(N3CCN(C)CC3)nc2)nc1Nc1ccc2oc(=O)n(C(C)C)c2c1` [II-7, N2-(6-(4-methylpiperazin-1-yl)pyridin-3-yl)-N4-(3-isopropylbenzo[d]oxazol-2(3H)-on-5-yl)-5-methylpyrimidine-2,4-diamine], the IC50 (Homo sapiens, T-cell) is less than 500 nM. Still for that read-out and setting: the figure for `Cc1cnc(Nc2ccc(NC3CCN(C)CC3)nc2)nc1Nc1ccc2oc(=O)[nH]c2c1` [II-35, N4-(benzo[d]oxazol-2(3H)-on-5-yl)-N2-[2-(1-methylpiperidin-4-yl)aminopyridin-5-yl]-5-methylpyrimidine-2,4-diamine] is less than 500 nM; for `Cc1cnc(Nc2cccc(NS(C)(=O)=O)c2)nc1Nc1ccc2[nH]c(=O)[nH]c2c1` [Compound I-54, N2-(3-(methylsulfonylamino)phenyl)-N4-(1H-benzo[d]imidazol-2(3H)-on-5-yl)-5-methylpyrimidine-2,4-diamine] it is less than 500 nM. `CCN1CCN(c2ccc(Nc3ncc(C)c(Nc4ccc5oc(=O)[nH]c5c4)n3)cc2Cl)CC1` [Compound I-278, N2-[3-chloro-4-(4-ethylpiperazino)]phenyl-5-methyl-N4-(2-oxo-2,3-dihydro-1,3-benzoxazol-5-yl)-2,4-pyrimidinediamine]: the IC50 was less than 500 nM. Take `Cc1cnc(Nc2ccc3c(c2)C(=O)CCCC3)nc1Nc1ccc2oc(=O)[nH]c2c1` [IV-2, N4-(benzo[d]oxazol-2(3H)-on-5-yl)-N2-(6,7,8,9-tetrahydro-5H-benzo[7]annulen-5-on-3-yl)-5-methylpyrimidine-2,4-diamine]: the IC50 (Homo sapiens, T-cell) was less than 500 nM.

Take `Cc1cnc(Nc2ccc(N3C[C@@H](C)N(C)[C@@H](C)C3)nc2)nc1Nc1ccc2oc(=O)[nH]c2c1` [II-127, 5-methyl-N4-(2-oxo-2,3-dihydro-1,3-benzoxazol-5-yl)-N2-[2-(cis-3,4,5-trimethylpiperazino)pyridin-5-yl]-2,4-pyrimidinediamine]: the concentration for half-maximal inhibition (IC50) (Homo sapiens, T-cell) was less than 500 nM. On the same count and under the same terms, with `COc1cc(C)cc(Nc2ncc(C)c(Nc3ccc4oc(=O)[nH]c4c3)n2)c1` [Compound I-259, 5-(2-(3-methoxy-5-methylphenylamino)-5-methylpyrimidin-4-ylamino)benzo[d]oxazol-2(3H)-one] the figure was less than 500 nM. Turning to `CN(c1ccc(Nc2ncc(F)c(Nc3ccc4oc(=O)[nH]c4c3)n2)cc1)S(C)(=O)=O` [Compound I-96, N2-((4-methylsulfonyl-N-methylamino)phenyl)-N4-(2-oxo-2,3-dihydrobenzo[d]oxazol-5-yl)-5-fluoropyrimidine-2,4-diamine], the IC50 is less than 500 nM.

On to `Cc1cnc(Nc2ccc(F)c(NS(C)(=O)=O)c2)nc1Nc1ccc2[nH]c(=O)oc2c1` [Compound I-105, N2-((4-fluoro-3-methylsulfonylamino)phenyl)-N4-(2-oxo-2,3-dihydrobenzo[d]oxazol-6-yl)-5-methylpyrimidine-2,4-diamine], for which the IC50 is greater than 10000 nM. For the compound `CCN(CC)C1CCN(C(=O)c2ccc(Nc3ncc(C)c(Nc4ccc5oc(=O)[nH]c5c4)n3)cc2)C1` (stereo not shown) [Compound I-128, 5-{2-[4-(3-Diethylamino-pyrrolidine-1-carbonyl)-phenylamino]-5-methyl-pyrimidin-4-ylamino}-3H-benzooxazol-2-one], the half-maximal inhibitory concentration (IC50) (Homo sapiens, T-cell) was less than 500 nM. The same measure, in the same setting: the figure for `Cc1cnc(Nc2ccc(N3CCN(CC4CC4)[C@H](C)C3)nc2)nc1Nc1ccc2oc(=O)[nH]c2c1` [II-56, (R)-5-(2-(6-(4-(cyclopropylmethyl)-3-methylpiperazin-1-yl)pyridin-3-ylamino)-5-methylpyrimidin-4-ylamino)benzo[d]oxazol-2(3H)-one] is less than 500 nM; for `Cc1cnc(Nc2ccc(N3CCN(C)[C@H](C)C3)nc2)nc1Nc1ccc2oc(=O)[nH]c2c1` [II-55, (R)-5-(2-(6-(3,4-dimethylpiperazin-1-yl)pyridin-3-ylamino)-5-methylpyrimidin-4-ylamino)benzo[d]oxazol-2(3H)-one] it is less than 500 nM. In the case of `Cc1cnc(Nc2ccc(N3CCCC3)c(C#N)c2)nc1Nc1ccc2oc(=O)[nH]c2c1` [Compound I-310, N2-[3-cyano-4-(pyrrolidin-1-yl)]phenyl-5-methyl-N4-(2-oxo-2,3-dihydro-1,3-benzoxazol-5-yl)-2,4-pyrimidinediamine], the IC50 is less than 500 nM.

On to `COc1cc(Nc2ncc(C)c(Nc3ccc4oc(=O)[nH]c4c3)n2)cc(C(C)N2CCC2)c1` (stereo not shown) [Compound I-235, 5-(2-(3-(1-(azetidin-1-yl)ethyl)-5-methoxyphenylamino)-5-methylpyrimidin-4-ylamino)benzo[d]oxazol-2(3H)-one], for which, where the note is “Homo sapiens, T-cell”, the IC50 was less than 500 nM.

Turning to `Cc1cnc(Nc2ccc(N3CCC(N(C)C)C3)nc2)nc1Nc1ccc2oc(=O)[nH]c2c1` (stereo not shown) [II-80, 5-(2-(6-(3-(dimethylamino)pyrrolidin-1-yl)pyridin-3-ylamino)-5-methylpyrimidin-4-ylamino)benzo[d]oxazol-2(3H)-one], for the setting “Homo sapiens, T-cell”, the IC50 was less than 500 nM. On to `COC(c1cccc(Nc2ncc(C)c(Nc3ccc4oc(=O)[nH]c4c3)n2)c1)C(F)(F)F` (stereo not shown) [Compound I-396, N2-[3-(1-methoxy-2,2,2-trifluoroethyl)]phenyl-5-methyl-N4-(2-oxo-2,3-dihydro-1,3-benzoxazol-5-yl)-2,4-pyrimidinediamine], for which the IC50 was less than 500 nM. Same read-out and setting: with `CS(=O)(=O)Nc1cc(Nc2ncc(F)c(Nc3ccc4oc(=O)[nH]c4c3)n2)ccc1F` [Compound I-90, N2-((4-fluoro-3-methylsulfonylamino)phenyl)-N4-(2-oxo-2,3-dihydrobenzo[d]oxazol-5-yl)-5-fluoropyrimidine-2,4-diamine] the figure was less than 500 nM. As for `COc1cc(Nc2ncc(C)c(Nc3ccc4oc(=O)[nH]c4c3)n2)ccc1F` [Compound I-183, 5-[2-(4-Fluoro-3-methoxy-phenylamino)-5-methyl-pyrimidin-4-ylamino]-3H-benzooxazol-2-one], the IC50 (Homo sapiens, T-cell) was less than 500 nM. Turning to `Cc1cnc(Nc2cnc(N3CCN4CCC[C@@H]4C3)c(F)c2)nc1Nc1ccc2oc(=O)[nH]c2c1` [II-113, N4-(benzo[d]oxazolin-2(3H)-one-5-yl)-N2-{2-[(8R)-1,4-diazabicyclo[4.3.0]nonane-1-yl]-3-fluoropyridine-5-yl}-5-methyl-2,4-pyrimidinediamine], the IC50 is less than 500 nM.

Regarding `COc1ccc(Nc2ncc(C)c(Nc3ccc4oc(=O)[nH]c4c3)n2)cc1OCc1ccncc1` [Compound I-298, N2-{4-methoxy-3-[(pyridin-4-yl)methoxy]}phenyl-5-methyl-N4-(2-oxo-2,3-dihydro-1,3-benzoxazol-5-yl)-2,4-pyrimidinediamine], the IC50 is less than 500 nM. For `Cc1cnc(Nc2cc(F)ccc2F)nc1Nc1ccc2oc(=O)[nH]c2c1` [Compound I-466, 5-[2-(2,5-Difluoro-phenylamino)-5-methyl-pyrimidin-4-ylamino]-3H-benzooxazol-2-one], under “Homo sapiens, T-cell”, the IC50 was less than 500 nM.
